These results are taken from patent US11884627B2, “Compounds and compositions for treating conditions associated with LPA receptor activity” (Lhotse Bio, Inc., priority 2022, dated 2024).

In general, IC50 refers to the point on the concentration scale where inhibition reaches its midpoint.

Like-named read-outs stand apart in the source and are kept apart here.

This assay concerns the target T1, human LPA1 (Homo sapiens, UniProt Q92633).
T1 construct: expressed in transfected cells; host or cells: CHO-K1
The assay is described as follows: In vitro LPA1 calcium flux antagonist assay - Bioduro protocol. The format is cell-based. To be noted: CHO-K1 cells overexpressing human LPA1 and G15a, LPA challenge at EC80. Summed up:
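CHO-K1 cells overexpressing human LPA1 and G15a, serum-starved 4 h, loaded with Fluo-8 AM plus 2.5 mM probenecid in HBSS/20 mM Hepes for 30 min at 37 °C. Compound preincubated 30 min, then LPA challenge at EC80; FLIPR calcium signal, % inhibition relative to DMSO and LPA controls.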
In general terms: Calcium flux is commonly read through the fluorescence of an indicator in the cells.

[1] abbreviates: calcium mobilization on FLIPR Tetra, read-out: IC50.
Where [2] appears, read: Table B3, read-out: Activity (IC50 class).

T1 sequence (Q92633 whole entry): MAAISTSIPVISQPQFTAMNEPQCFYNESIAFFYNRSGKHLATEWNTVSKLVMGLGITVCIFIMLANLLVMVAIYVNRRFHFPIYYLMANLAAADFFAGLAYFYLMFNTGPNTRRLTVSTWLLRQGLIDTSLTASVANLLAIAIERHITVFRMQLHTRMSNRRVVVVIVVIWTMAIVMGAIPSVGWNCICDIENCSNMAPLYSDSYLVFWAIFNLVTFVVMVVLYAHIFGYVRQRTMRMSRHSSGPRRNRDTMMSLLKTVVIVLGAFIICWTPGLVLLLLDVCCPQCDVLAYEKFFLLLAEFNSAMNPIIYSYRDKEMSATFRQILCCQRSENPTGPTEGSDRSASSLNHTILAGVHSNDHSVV

On to `O=C(O)C1(Nc2ccc(-c3cccc(OC4CC4)c3C(F)F)c(COC3CC3)c2)CC1` [Compound 325], for which the half-inhibitory concentration (IC50) was 59.6 nM under setting [1] and less than 100 nM under setting [2].

Take `CCCc1cccc(-c2ccc(NC3(C(=O)O)CCOCC3)cc2COC2CC2)c1F` [Compound 326]: the 50% inhibitory concentration (IC50) under setting [1] worked out at 124 nM and the 50% inhibitory concentration (IC50) under setting [2] lay in the range of 100 to 1000 nM.

As to `CCc1cccc(-c2ccc(NC3(C(=O)O)CCOCC3)cc2COC2CC2)c1F` [Compound 327], the half-maximal inhibitory concentration (IC50) is, setting by setting: under setting [1], 412 nM; under setting [2], 100 to 1000 nM.

`Cc1cccc(-c2ccc(NC3(C(=O)O)CCOCC3)cc2COC2CC2)c1F` [Compound 328]: the IC50 under setting [1] is more than 10000 nM and the IC50 under setting [2] was more than 1000 nM.

`CCOc1cc(-c2ccc(NC3(C(=O)O)CCOCC3)cc2COC2CC2)cc(OC)c1C` [Compound 329]: the concentration for half-maximal inhibition (IC50) was 61.9 nM under setting [1] and less than 100 nM under setting [2].

Consider `CCOc1cc(-c2ccc(NC3(C(=O)O)CCOCC3)cc2COC2CCCC2)cc(OC)c1C` [Compound 330], for which the IC50 by setting is: under setting [1], 9.53 nM; under setting [2], less than 100 nM.

Take `COc1cc(OC2CC2)cc(-c2ccc(NC3(C(=O)O)CCOCC3)cc2COC2CCCC2)c1` [Compound 331]: the IC50 was 9.37 nM under setting [1] and less than 100 nM under setting [2].

Turning to `COc1cc(OC2CC2)cc(-c2ccc(NC3(C(=O)O)CCOCC3)cc2COC2CC2)c1` [Compound 332], the IC50 is 139 nM under setting [1] and less than 100 nM under setting [2].

With `CCOc1cccc(-c2ccc(NC3(C(=O)O)CCC3)cc2COC2CC2)c1C(F)F` [Compound 333], the concentration for half-maximal inhibition (IC50) reads like this: under setting [1], 10.3 nM; under setting [2], less than 100 nM.

Take `CCCOCc1cc(NC2(C(=O)O)CCOCC2)ccc1-c1cc(OC)c(C)c(OC)c1F` [Compound 334]: the IC50 is 45.2 nM under setting [1] and less than 100 nM under setting [2].

In the case of `CCCCOCc1cc(NC2(C(=O)O)CCOCC2)ccc1-c1cc(OC)c(C)c(OC)c1F` [Compound 335], the 50% inhibitory concentration (IC50) under setting [1] was determined as 5.56 nM and the IC50 under setting [2] was less than 100 nM.

In the case of `COc1cc(-c2ccc(NC3(C(=O)O)CCOCC3)cc2COCC(C)C)c(F)c(OC)c1C` [Compound 336], the concentration for half-maximal inhibition (IC50) by setting is: under setting [1], 18.8 nM; under setting [2], less than 100 nM.

In the case of `CCOc1cc(OC)cc(-c2ccc(NC3(C(=O)O)CC3)cc2COC2CC2)c1F` [Compound 337], the 50% inhibitory concentration (IC50) was 315 nM under setting [1] and 100 to 1000 nM under setting [2].

For `CCOc1nccc(-c2ccc(NC3(C(=O)O)CCOCC3)cc2COC2CC2)c1C(F)F` [Compound 338], the IC50 reads like this: under setting [1], 17.2 nM; under setting [2], less than 100 nM.

Consider `CCc1nccc(-c2ccc(NC3(C(=O)O)CCOCC3)cc2COC2CC2)c1F` [Compound 339], for which the half-maximal inhibitory concentration (IC50) is 85.3 nM under setting [1] and less than 100 nM under setting [2].

In the case of `COc1cc(-c2ccc(NC3(C(=O)O)CCOCC3)cc2COC2CCCC2)cc(OC2CC2)c1C` [Compound 340], the 50% inhibitory concentration (IC50) under setting [1] came to 26.1 nM and the IC50 under setting [2] is less than 100 nM.

On to `COc1cc(-c2ccc(NC3(C(=O)O)CCOCC3)cc2COC2CC2)cc(OC2CC2)c1C` [Compound 341], for which the half-maximal inhibitory concentration (IC50) under setting [1] was found to be 214 nM and the IC50 under setting [2] was in the range of 100 to 1000 nM.

As to `COc1cc(-c2ccc(NC3(C(=O)O)CCOCC3)cc2COC2CC2)c(F)c(OC)c1C#N` [Compound 342], the half-maximal inhibitory concentration (IC50) by setting is: under setting [1], 19.7 nM; under setting [2], less than 100 nM.

Take `COc1cc(-c2ccc(OC3(C(=O)O)CCOCC3)cc2COC2CC2)c(F)c(OC)c1C` [Compound 343]: the IC50 under setting [1] worked out at 1130 nM and the IC50 under setting [2] is more than 1000 nM.

For the compound `COc1cc(OC2CC2)c(F)c(-c2ccc(OC3(C(=O)O)CCOCC3)cc2COC2CC2)c1` [Compound 344], the IC50 runs as follows: under setting [1], 106 nM; under setting [2], 100 to 1000 nM.

In the case of `COc1cc(OC2CC2)c(F)c(-c2ccc(NC3(C(=O)O)CCC(F)(F)CC3)cc2COC2CC2)c1` [Compound 346], the half-maximal inhibitory concentration (IC50) is, setting by setting: under setting [1], 7.24 nM; under setting [2], less than 100 nM.

Turning to `COc1cc(-c2ccc(NC3(C(=O)O)CCC(F)(F)CC3)cc2COC2CC2)c(F)c(OC)c1C` [Compound 347], the concentration for half-maximal inhibition (IC50) reads like this: under setting [1], 23.5 nM; under setting [2], less than 100 nM.

In the case of `COc1cc(-c2ccc(NC3(C(=O)O)CCC(F)(F)CC3)cc2COC2CC2)cc(OC)c1C` [Compound 348], the IC50 under setting [1] was determined as 69.5 nM and the concentration for half-maximal inhibition (IC50) under setting [2] was less than 100 nM.

On to `COc1cc(-c2ccc(NC3(C(=O)O)CCC(F)(F)CC3)cc2COC2CCCC2)cc(OC)c1C` [Compound 349], for which the half-maximal inhibitory concentration (IC50) is 14.2 nM under setting [1] and less than 100 nM under setting [2].

Turning to `CCOCc1cc(NC2(C(=O)O)CCOCC2)ccc1-c1cc(OC)c(C)c(OC)c1F` [Compound 350], the IC50 under setting [1] amounted to 4320 nM and the IC50 under setting [2] was more than 1000 nM.

As for `COc1cc(-c2ccc(NC3(C(=O)O)CCOCC3)cc2COCCC(C)C)c(F)c(OC)c1C` [Compound 351], the IC50 is 4.63 nM under setting [1] and less than 100 nM under setting [2].

As to `COc1cc(-c2ccc(NC3(C(=O)O)CCOCC3)cc2COC(C)C)c(F)c(OC)c1C` [Compound 352], the IC50 by setting is: under setting [1], 75 nM; under setting [2], less than 100 nM.

In the case of `COc1cc(-c2ccc(NC3(C(=O)O)CCOCC3)cc2COCC2CCC2)c(F)c(OC)c1C` [Compound 353], the IC50 by setting is: under setting [1], 8.39 nM; under setting [2], less than 100 nM.

`COc1cc(-c2ccc(OC3(C(=O)O)CCOCC3)cc2COC2CC2)c(C)c(OC)c1C` [Compound 354]: the half-inhibitory concentration (IC50) under setting [1] was determined as 35.5 nM and the IC50 under setting [2] was less than 100 nM.

Regarding `CCOc1cc(OC)cc(-c2ccc(NC3(C(=O)O)CCCCC3)cc2COC2CC2)c1F` [Compound 357], the IC50 is 30.3 nM under setting [1] and less than 100 nM under setting [2].

As for `CCOc1cccc(-c2ccc(NC3(C(=O)O)CCOCC3)cc2COC2CC2)c1C(F)(F)F` [Compound 358], the half-inhibitory concentration (IC50) under setting [1] was 5.37 nM and the IC50 under setting [2] is less than 100 nM.

As to `CCOc1cccc(-c2ccc(NC3(C(=O)O)CC3)cc2COC2CC2)c1C(F)F` [Compound 359], the IC50 under setting [1] was found to be 49.8 nM and the concentration for half-maximal inhibition (IC50) under setting [2] was less than 100 nM.

Consider `CCOc1cccc(-c2ccc(NC3(C(=O)O)CC3)cc2COC2CC2)c1C` [Compound 360], for which the IC50 under setting [1] is 75.5 nM and the half-maximal inhibitory concentration (IC50) under setting [2] was less than 100 nM.

For `CCOc1c(C)c(OC)cc(-c2ccc(NC3(C(=O)O)CC3)cc2COC2CC2)c1F` [Compound 361], the IC50 under setting [1] amounted to 75.6 nM and the IC50 under setting [2] is less than 100 nM.

`COc1cc(-c2ccc(NC3(C(=O)O)CCC3)cc2COC2CC2)c(F)c(OC)c1C` [Compound 362]: the half-inhibitory concentration (IC50) is, setting by setting: under setting [1], 356 nM; under setting [2], 100 to 1000 nM.

Consider `CCOc1cc(OC)cc(-c2ccc(NC3(C(=O)O)CCOCC3)cc2COC2CCCC2)n1` [Compound 363], for which the IC50 under setting [1] came out at 4850 nM and the IC50 under setting [2] is more than 1000 nM.

For `COc1cc(-c2ccc(NC3(C(=O)O)CCOCC3)cc2COCC2CC2)c(F)c(OC)c1C` [Compound 364], the half-maximal inhibitory concentration (IC50) under setting [1] is 82.9 nM and the concentration for half-maximal inhibition (IC50) under setting [2] was less than 100 nM.

As for `COc1cc(-c2ccc(OC3(C(=O)O)CCOCC3)cc2COC2CC2)c(Cl)c(OC)c1C` [Compound 365], the IC50 reads like this: under setting [1], 18.7 nM; under setting [2], less than 100 nM.

For the compound `COc1cc(-c2ccc(NC3(C(=O)O)CC(F)(F)C3)cc2COC2CC2)c(F)c(OC)c1C` [Compound 366], the 50% inhibitory concentration (IC50) under setting [1] was 55 nM and the IC50 under setting [2] is less than 100 nM.

On to `CCOc1cc(OC)cc(-c2ccc(NC3(C(=O)O)CC(F)(F)C3)cc2COC2CC2)c1F` [Compound 367], for which the IC50 is 33.2 nM under setting [1] and less than 100 nM under setting [2].

For `CCOc1c(C)ccc(-c2ccc(NC3(C(=O)O)CC3)cc2COC2CC2)c1C` [Compound 368], the IC50 runs as follows: under setting [1], 40.7 nM; under setting [2], less than 100 nM.

Regarding `CCOc1c(C)ccc(-c2ccc(OC3(C(=O)O)CCOCC3)cc2COC2CC2)c1C` [Compound 369], the IC50 runs as follows: under setting [1], 44.8 nM; under setting [2], less than 100 nM.

For the compound `CCOc1cccc(-c2ccc(OC3(C(=O)O)CCOCC3)cc2COC2CC2)c1C(F)F` [Compound 371], the concentration for half-maximal inhibition (IC50) reads like this: under setting [1], 22.3 nM; under setting [2], less than 100 nM.

Turning to `Cc1c(OC2CC2)cccc1-c1ccc(OC2(C(=O)O)CCOCC2)cc1COC1CC1` [Compound 372], the IC50 by setting is: under setting [1], 57.4 nM; under setting [2], less than 100 nM.

Regarding `CCOc1cccc(-c2ccc(NC3(C(=O)O)CCOCC3)cc2CCC2CC2)c1F` [Compound 373], the IC50 is 1.2 nM under setting [1] and less than 100 nM under setting [2].

Take `CCOc1cccc(-c2ccc(OC3(C(=O)O)CCOCC3)cc2COC2CC2)c1Cl` [Compound 374]: the half-maximal inhibitory concentration (IC50) runs as follows: under setting [1], 14.6 nM; under setting [2], less than 100 nM.

As for `CCOc1cccc(-c2ccc(OC3(C(=O)O)CCC3)cc2COC2CC2)c1C(F)F` [Compound 375], the half-inhibitory concentration (IC50) is, setting by setting: under setting [1], 24.3 nM; under setting [2], less than 100 nM.

As for `CCOc1cccc(-c2ccc(NC3(C(=O)O)CCCC3)cc2COC2CC2)c1C(F)F` [Compound 376], the half-maximal inhibitory concentration (IC50) is 1.03 nM under setting [1] and less than 100 nM under setting [2].

Consider `CCOc1cccc(-c2ccc(OC3(C(=O)O)CCC3)cc2COC2CC2)c1` [Compound 377], for which the 50% inhibitory concentration (IC50) is, setting by setting: under setting [1], more than 10000 nM; under setting [2], more than 1000 nM.

For the compound `COc1cc(OC2CC2)cc(-c2ccc(OC3(C(=O)O)CCOCC3)cc2COC2CCCC2)c1` [Compound 378], the IC50 was 834 nM under setting [1] and 100 to 1000 nM under setting [2].

On to `CCOc1cc(-c2ccc(OC3(C(=O)O)CCOCC3)cc2COC2CCCC2)cc(OC)c1C` [Compound 379], for which the IC50 by setting is: under setting [1], 67.3 nM; under setting [2], less than 100 nM.

In the case of `CCOc1c(C)ccc(-c2ccc(NC3(C(=O)O)CCOCC3)cc2COC2CC2)c1F` [Compound 381], the IC50 by setting is: under setting [1], 17.5 nM; under setting [2], less than 100 nM.

As for `CCOc1cc(OC)cc(-c2ccc(C3(C(=O)O)CC3)cc2COC2CC2)c1F` [Compound 382], the half-inhibitory concentration (IC50) under setting [1] was more than 10000 nM and the IC50 under setting [2] is more than 1000 nM.

Take `CCOc1cccc(-c2ccc(NC3(C(=O)O)CCC(F)(F)CC3)cc2COC2CC2)c1C` [Compound 383]: the half-inhibitory concentration (IC50) is 0.847 nM under setting [1] and less than 100 nM under setting [2].
